# US5607931A, “1,2-disubstituted ethly amides as inhibitors of ACAT” (Schering Corporation, priority 1995, dated 1997)
# Columns and labels:
# [1] = target: T1, ACAT (Rattus norvegicus, UniProt Q7TQM4); experiment: ACAT Assay (in vitro), transfer of tritiated oleic acid from acyl-CoA to cholesterol, rat liver microsomes; type: biochemical; conditions: for inhibition at 10 µM: read-out: % ACAT Inhib. @10 μM; for IC50: 0.1 to 25 μM
# T1 construct: Rat liver microsomes are used as the source of ACAT; from tissue; host or cells: rat liver microsomes
# T1 sequence (Q7TQM4 1-524): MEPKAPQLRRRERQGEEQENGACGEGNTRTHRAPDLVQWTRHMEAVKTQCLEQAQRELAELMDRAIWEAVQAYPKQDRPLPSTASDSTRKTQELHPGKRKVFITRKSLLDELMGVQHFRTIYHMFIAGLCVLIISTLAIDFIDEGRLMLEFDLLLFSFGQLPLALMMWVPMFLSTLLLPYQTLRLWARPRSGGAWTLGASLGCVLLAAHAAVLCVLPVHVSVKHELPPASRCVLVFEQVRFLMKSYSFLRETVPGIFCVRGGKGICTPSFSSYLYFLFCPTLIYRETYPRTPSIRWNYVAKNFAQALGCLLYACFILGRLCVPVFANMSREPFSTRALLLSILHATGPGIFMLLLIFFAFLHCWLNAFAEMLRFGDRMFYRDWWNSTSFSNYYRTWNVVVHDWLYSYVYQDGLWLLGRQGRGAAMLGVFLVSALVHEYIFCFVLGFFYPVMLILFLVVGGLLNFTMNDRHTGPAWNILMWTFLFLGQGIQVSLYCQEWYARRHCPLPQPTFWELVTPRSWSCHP
# Experimental: This assay measures the activity of ACAT by measuring the ACAT-mediated transfer of tritiated oleic acid from acyl-CoA to cholesterol to give labelled cholesterol oleate. Rat liver microsomes are used as the source of ACAT. Assays are performed in round bottom microtiterplates using a total incubation volume of 50 μL. Each incubation well receives 10 μL assay buffer (0.5M KHPO4, 10 μM dithiothreitol, pH 7.4), 7.5 μL of 40 mg/mL BSA (Bovine Serum Albumin) and 12.5 μg of microsomal protein. The test compound (in sufficient amount to bring the final concentration to from 0.1 to 25 μM), reference compound, or vehicle control is added and the final volume brought to 47 μL. The microtiterplate is then floated on the surface of a 37° C. water bath for fifteen minutes. Incubations are started by the addition of 3 μL ^3 H-acyl CoA (1 μCi/well, final concentration of 10 μM acyl CoA). The plate is then returned to the water bath for 15 minutes. The incubations are then terminated by application of 15 μL from each incubation to individual lanes on a thin layer plate (Silica Gel GF 20×20 cm). Standards are applied to several lanes so that the cholesterol ester band can be identified. After drying, the plates are eluted with 90:10:1 petroleum ether:diethyl ether:acetic acid. The standards are visualized via iodine vapor, and the regions corresponding to cholesterol ester are scraped into 7 mL scintillation vials. 4 mL of scintillant are added to each vial, and the radioactivity quantified. Background count is determined by the boiled controls. Full activity is determined by activity in the presence of vehicle. The percent inhibition is calculated by subtracting the background from both control and test samples, and the test value is calculated as a percentage of the control. For IC50 determinations, the inhibition is plotted against drug does on a log scale and the concentration at which 50% inhibition is obtained is determined.
# [2] = system: liver cholesterol esters; experiment: In Vivo Assay of Hypolipidemic Agents Using the Hyperlipidemic Hamster; conditions: Mesocricetus auratus, 168 h; 50 mpk, oral gavage in corn oil once daily, seven days; 0.5% cholesterol diet; percent reduction versus control; read-out: In Vivo 50 mpk % Redn. L/CE
# Experimental: In Vivo Assay of Hypolipidemic Agents Using the Hyperlipidemic Hamster
# Hamsters are separated into groups of six and given a control cholesterol diet (Purina Chow #5001 containing 0.5% cholesterol) for seven days. Diet consumption is monitored to determine dietary cholesterol exposure in the face of test compounds. The animals are dosed with the test compound once daily beginning with the initiation of diet. Dosing is by oral gavage of 0.2 mL of corn oil alone (control group) or solution (or suspension) of test compound in corn oil. All animals moribund or in poor physical condition are euthanized. After seven days, the animals are anesthetized by IM injection of ketamine and sacrificed by decapitation. Blood is collected into vacutainer tubes containing EDTA for plasma lipid analysis and the liver excised for tissue lipid analysis. Data is reported as percent reduction of lipid versus control.
compound,measurement,setting,value
CCCCCCCC/C=C\CCCCCCCC(=O)NC(CN1CCOCC1)c1ccccc1 (centres unmarked),inhibition at 10 µM,[1],99%
same,IC50,[1],300 nM
same,change in vivo at 50 mg/kg,[2],-21%
CCCCCCCC/C=C\CCCCCCCC(=O)NC(CN1CCCCC1)c1ccccc1 (centres unmarked),inhibition at 10 µM,[1],94%
same,IC50,[1],1200 nM
same,change in vivo at 50 mg/kg,[2],-12%
CCCCCCCC/C=C\CCCCCCCC(=O)NC(CN1CCC(N)CC1)c1ccccc1 (centres unmarked),inhibition at 10 µM,[1],-90%
same,change in vivo at 50 mg/kg,[2],-59%
CC(=O)CC(=O)OC1CCN(CC(NC(=O)C(c2ccccc2)c2ccccc2)c2ccccc2)CC1 (centres unmarked),inhibition at 10 µM,[1],53%
CCCCCCCC/C=C\CCCCCCCC(=O)NC(CC1CCCCC1)c1ccccc1 (centres unmarked),inhibition at 10 µM,[1],92%
same,IC50,[1],180 nM
CCCCCCCC/C=C\CCCCCCCC(=O)NC(CN1CCC2(CCCC2)CC1)c1ccccc1 (centres unmarked),inhibition at 10 µM,[1],59%
same,change in vivo at 50 mg/kg,[2],0%
O=C(NC(CN1CCC(O)CC1)c1ccccc1)C(c1ccccc1)c1ccccc1 (centres unmarked),inhibition at 10 µM,[1],83%
same,IC50,[1],3000 nM
same,change in vivo at 50 mg/kg,[2],-25%
O=C(CCCCCCCCCCOc1ccccc1)NC(CN1CCCCC1)c1ccccc1 (centres unmarked),inhibition at 10 µM,[1],84%
same,IC50,[1],5000 nM
same,change in vivo at 50 mg/kg,[2],0%
CCCCCCCCCCCCCCCC(=O)NC(C(=O)N1CCN(C)CC1)c1ccccc1 (centres unmarked),inhibition at 10 µM,[1],95%
same,IC50,[1],1800 nM
same,change in vivo at 50 mg/kg,[2],-17%
CCCCCCCC/C=C\CCCCCCCC(=O)NC(CN1CCC(=NO)CC1)c1ccccc1 (centres unmarked),inhibition at 10 µM,[1],100%
same,IC50,[1],30 nM
same,change in vivo at 50 mg/kg,[2],-21%
O=C(NC(CN1CCOCC1)c1ccccc1)C(c1ccccc1)c1ccccc1 (centres unmarked),inhibition at 10 µM,[1],94%
same,IC50,[1],3000 nM
same,change in vivo at 50 mg/kg,[2],-15%
CCCCCCCCCCCCCC(=O)NC(CN1CCN(C)CC1)c1ccccc1 (centres unmarked),inhibition at 10 µM,[1],81%
same,IC50,[1],7000 nM
same,change in vivo at 50 mg/kg,[2],0%
O=C(NC(CN1CCC2(CC1)OCCO2)c1ccccc1)C(c1ccccc1)c1ccccc1 (centres unmarked),inhibition at 10 µM,[1],94%
same,IC50,[1],300 nM
same,change in vivo at 50 mg/kg,[2],-26%
CCCCCCCC/C=C\CCCCCCCC(=O)NC(CN1CCN(C)CC1)c1ccccc1 (centres unmarked),inhibition at 10 µM,[1],98%
same,IC50,[1],300 nM
same,change in vivo at 50 mg/kg,[2],-55%
CCCCCCCCCCCCC(C)(C)C(=O)NC(CN1CCN(C)CC1)c1ccccc1 (centres unmarked),inhibition at 10 µM,[1],95%
same,IC50,[1],290 nM
same,change in vivo at 50 mg/kg,[2],-44%
CC(=O)OC1CCN(CC(NC(=O)C(c2ccccc2)c2ccccc2)c2ccccc2)CC1 (centres unmarked),inhibition at 10 µM,[1],59%
same,change in vivo at 50 mg/kg,[2],-25%
CCCCCCCCCCCCCCCCCC(=O)NC(CN1CCN(C)CC1)c1ccccc1 (centres unmarked),inhibition at 10 µM,[1],90%
same,IC50,[1],500 nM
same,change in vivo at 50 mg/kg,[2],-25%
CN1CCN(CC(NC(=O)C(c2ccccc2)c2ccccc2)c2ccccc2)CC1 (centres unmarked),inhibition at 10 µM,[1],71%
same,IC50,[1],4500 nM
same,change in vivo at 50 mg/kg,[2],-39%
CCCCCCCC/C=C\CCCCCCCC(=O)NC(Cc1ccccc1)C1CCCCC1 (centres unmarked),inhibition at 10 µM,[1],90%
same,IC50,[1],170 nM
same,change in vivo at 50 mg/kg,[2],0%
CCCCCC/C=C\CCCCCCCC(=O)NC(CN1CCN(C)CC1)c1ccccc1 (centres unmarked),inhibition at 10 µM,[1],97%
same,IC50,[1],160 nM
same,change in vivo at 50 mg/kg,[2],-37%
CCCCCCCC/C=C\CCCCCCCC(=O)NC(CN1CCC(OC)(OC)CC1)c1ccccc1 (centres unmarked),inhibition at 10 µM,[1],93%
same,IC50,[1],500 nM
same,change in vivo at 50 mg/kg,[2],-18%
O=C1CCN(CC(NC(=O)C(c2ccccc2)c2ccccc2)c2ccccc2)CC1 (centres unmarked),inhibition at 10 µM,[1],90%
same,IC50,[1],500 nM
same,change in vivo at 50 mg/kg,[2],0%
CCCCCCCCCCCC(=O)NC(CN1CCN(C)CC1)c1ccccc1 (centres unmarked),inhibition at 10 µM,[1],58%
same,change in vivo at 50 mg/kg,[2],0%
CCCCCCCCCCCCCCCC(=O)NC(CN1CCC2(CC1)OCCO2)c1ccccc1 (centres unmarked),inhibition at 10 µM,[1],99%
same,IC50,[1],160 nM
same,change in vivo at 50 mg/kg,[2],-19%
CCCCCCCCCCC(C)(C)C(=O)NC(CN1CCN(C)CC1)c1ccccc1 (centres unmarked),inhibition at 10 µM,[1],94%
same,IC50,[1],390 nM
same,change in vivo at 50 mg/kg,[2],0%
CCCCCCCC/C=C\CCCCCCCC(=O)NC(CN1CCC(O)CC1)c1ccccc1 (centres unmarked),inhibition at 10 µM,[1],98%
same,IC50,[1],340 nM
same,change in vivo at 50 mg/kg,[2],-25%
CCCCCCCC/C=C\CCCCCCCC(=O)NC(CN1CCN(C(=O)OC(C)(C)C)CC1)c1ccccc1 (centres unmarked),inhibition at 10 µM,[1],100%
same,IC50,[1],60 nM
same,change in vivo at 50 mg/kg,[2],-22%
CCCCCCCCCCCCCCCC(=O)NC(CN1CCN(C)CC1)c1ccccc1 (centres unmarked),inhibition at 10 µM,[1],87%
same,IC50,[1],1200 nM
same,change in vivo at 50 mg/kg,[2],-60%
CCCCCCCC/C=C\CCCCCCCC(=O)NC(CN1CCC(OC)CC1)c1ccccc1 (centres unmarked),inhibition at 10 µM,[1],93%
same,IC50,[1],150 nM
same,change in vivo at 50 mg/kg,[2],-24%
O=C(NC(CN1CCCCC1)c1ccccc1)C(c1ccccc1)c1ccccc1 (centres unmarked),inhibition at 10 µM,[1],64%
same,change in vivo at 50 mg/kg,[2],0%
CCCCCCCC/C=C\CCCCCCCC(=O)NC(CN1CCNCC1)c1ccccc1 (centres unmarked),inhibition at 10 µM,[1],64%
same,change in vivo at 50 mg/kg,[2],-54%
COC1CCN(CC(NC(=O)C(c2ccccc2)c2ccccc2)c2ccccc2)CC1 (centres unmarked),inhibition at 10 µM,[1],88%
same,IC50,[1],1000 nM
same,change in vivo at 50 mg/kg,[2],-30%
CCCCCCCC/C=C\CCCCCCCC(=O)NC(CN1CCC(NC(=O)C(F)(F)F)CC1)c1ccccc1 (centres unmarked),inhibition at 10 µM,[1],90%
same,IC50,[1],800 nM
same,change in vivo at 50 mg/kg,[2],0%
CCCCCCCCCCCCCCC(C)(C)C(=O)NC(CN1CCN(C)CC1)c1ccccc1 (centres unmarked),inhibition at 10 µM,[1],97%
same,IC50,[1],1100 nM
same,change in vivo at 50 mg/kg,[2],-40%
O=C(NC(CN1CCC(=NO)CC1)c1ccccc1)C(c1ccccc1)c1ccccc1 (centres unmarked),inhibition at 10 µM,[1],94%
same,IC50,[1],400 nM
same,change in vivo at 50 mg/kg,[2],0%
CCCCCCCC/C=C\CCCCCCCC(=O)NC(CN1CCC(=O)CC1)c1ccccc1 (centres unmarked),inhibition at 10 µM,[1],100%
same,IC50,[1],180 nM
CCCCCCCC/C=C\CCCCCCCC(=O)NC(CN1CCC2(CC1)OCCO2)c1ccccc1 (centres unmarked),inhibition at 10 µM,[1],93%
same,IC50,[1],10 nM
same,change in vivo at 50 mg/kg,[2],-35%
CN1CCN(CC(NC(=O)CCCCCCCCCCOc2ccccc2)c2ccccc2)CC1 (centres unmarked),inhibition at 10 µM,[1],80%
same,IC50,[1],4000 nM
same,change in vivo at 50 mg/kg,[2],0%
